Source: the NIST ThermoML archive (doi:10.1016/j.jct.2012.11.020)
Numbers after ± are expanded uncertainties.

Assay: wn = mass fraction of the nth substance listed
Conditions: 298.15 K, 100 kPa, Liquid, Alternating current cell with electrodes

C1CC[NH2+]C1.O=[N+]([O-])[O-] [pyrrolidinium nitrate] + CC1COC(=O)O1
Conditions | electrical conductivity [S/m]
w1 = 0.1266 | 0.874 ± 0.15
w1 = 0.1348 | 0.927 ± 0.15
w1 = 0.1441 | 0.989 ± 0.15
w1 = 0.1543 | 1.06 ± 0.16
w1 = 0.1646 | 1.12 ± 0.16
w1 = 0.1788 | 1.24 ± 0.16
w1 = 0.1948 | 1.32 ± 0.17
w1 = 0.2149 | 1.45 ± 0.18
w1 = 0.2396 | 1.62 ± 0.22
w1 = 0.2529 | 1.7 ± 0.21
w1 = 0.2692 | 1.94 ± 0.23
w1 = 0.2862 | 2.05 ± 0.25
w1 = 0.3073 | 2.2 ± 0.22
w1 = 0.3274 | 2.32 ± 0.23
w1 = 0.3479 | 2.46 ± 0.23
w1 = 0.3768 | 2.63 ± 0.24
w1 = 0.3915 | 2.71 ± 0.24
w1 = 0.4212 | 2.86 ± 0.26
w1 = 0.4476 | 3.05 ± 0.26
w1 = 0.4916 | 3.21 ± 0.27
w1 = 0.5453 | 3.46 ± 0.29
w1 = 0.5834 | 3.62 ± 0.3
w1 = 0.6211 | 3.74 ± 0.3
w1 = 0.6897 | 3.92 ± 0.32
w1 = 0.7407 | 4.12 ± 0.34
w1 = 0.8065 | 4.28 ± 0.35
w1 = 0.8913 | 4.47 ± 0.36
w1 = 1 | 4.22 ± 0.34
